# Data from PubChem BioAssay (NCI).
#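 Following 48 hours of exposure in 96-well plates, responses at five concentrations were used to interpolate endpoints linearly. At the GI50, growth is halved. The concentration for full growth arrest is given as TGI.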
# Columns and labels:
# Experiment in all cases: inhibition of tumour cell growth, NCI panel, 48 h
# [1] = tested on: TK-10 renal
# [2] = tested on: UACC-257 melanoma
# [3] = tested on: SK-MEL-5 melanoma
# [4] = tested on: RXF 393 renal
# [5] = tested on: SN12C renal
# [6] = tested on: SF-539 CNS
# [7] = tested on: OVCAR-8 ovarian
# [8] = tested on: ACHN renal
# [9] = tested on: SNB-19 CNS
# [10] = tested on: OVCAR-4 ovarian
# [11] = tested on: COLO 205 colon
# [12] = tested on: SK-MEL-2 melanoma
# [13] = tested on: KM12 colon
# [14] = tested on: SK-MEL-28 melanoma
# [15] = tested on: HOP-92 NSCLC
# [16] = tested on: OVCAR-5 ovarian
# [17] = tested on: HCT-15 colon
# [18] = tested on: LOX IMVI melanoma
# [19] = tested on: 786-0 renal
# [20] = tested on: UO-31 renal
# [21] = tested on: HT29 colon
# [22] = tested on: RPMI-8226 leukemia
# [23] = tested on: U251 CNS
# [24] = tested on: CAKI-1 renal
# [25] = tested on: MCF7 breast
# [26] = tested on: SF-268 CNS
# [27] = tested on: NCI/ADR-RES ovarian
# [28] = tested on: SR leukemia
# [29] = tested on: BT-549 breast
# [30] = tested on: HS 578T breast
# [31] = tested on: M14 melanoma
# [32] = tested on: EKVX NSCLC
# [33] = tested on: A549 NSCLC
# [34] = tested on: NCI-H226 lung
# [35] = tested on: HCT-116 colon
# [36] = tested on: SK-OV-3 ovarian
# [37] = tested on: A498 renal
# [38] = tested on: MOLT-4 leukemia
# [39] = tested on: UACC-62 melanoma
# [40] = tested on: PC-3 prostate
# [41] = tested on: HL-60(TB) leukemia
# [42] = tested on: K-562 leukemia
# [43] = tested on: NCI-H460 lung
# [44] = tested on: SF-295 CNS
# [45] = tested on: MDA-MB-435
# [46] = tested on: NCI-H522 lung
# [47] = tested on: MDA-MB-231 breast
# [48] = tested on: DU-145 prostate
# [49] = tested on: HOP-62 NSCLC
# [50] = tested on: CCRF-CEM leukemia
# [51] = tested on: SNB-75 CNS
# [52] = tested on: IGROV1 ovarian
# [53] = tested on: MALME-3M melanoma
# [54] = tested on: NCI-H23 lung
# [55] = tested on: HCC-2998 colon
# [56] = tested on: SW-620 colon
# [57] = tested on: OVCAR-3 ovarian
compound,measurement,setting,value
COc1cc2c(cc1OCCCN1CCN(C)CC1)N=C[C@@H]1CCCN1C2=O,TGI,[1],> 100000 nM
same,TGI,[2],5680 nM
same,TGI,[3],9290 nM
same,TGI,[4],6030 nM
same,TGI,[5],> 100000 nM
same,TGI,[6],4970 nM
same,TGI,[7],8790 nM
same,TGI,[8],6120 nM
same,TGI,[9],> 100000 nM
same,TGI,[10],4780 nM
same,TGI,[11],2250 nM
same,TGI,[12],7410 nM
same,TGI,[13],4950 nM
same,TGI,[14],3970 nM
same,TGI,[15],4650 nM
same,TGI,[16],7010 nM
same,TGI,[17],7020 nM
same,TGI,[18],4380 nM
same,TGI,[19],18300 nM
same,TGI,[20],> 100000 nM
same,TGI,[21],4990 nM
same,TGI,[22],3680 nM
same,TGI,[23],14500 nM
same,TGI,[24],3120 nM
same,TGI,[25],> 100000 nM
same,TGI,[26],> 100000 nM
same,TGI,[27],21100 nM
same,TGI,[28],839 nM
same,TGI,[29],6590 nM
same,TGI,[30],> 100000 nM
same,TGI,[31],4990 nM
same,TGI,[32],6020 nM
same,TGI,[33],5940 nM
same,TGI,[34],4620 nM
same,TGI,[35],9470 nM
same,TGI,[36],23200 nM
same,TGI,[37],5750 nM
same,TGI,[38],2530 nM
same,TGI,[39],3750 nM
same,TGI,[40],9780 nM
same,TGI,[41],5370 nM
same,TGI,[42],14200 nM
same,TGI,[43],> 100000 nM
same,TGI,[44],5370 nM
same,TGI,[45],3770 nM
same,TGI,[46],518 nM
same,TGI,[47],22300 nM
same,TGI,[48],5980 nM
same,TGI,[49],9640 nM
same,TGI,[50],10600 nM
CNCCCNc1nc2ccccc2c2c(=O)c3cc(F)ccc3sc12,GI50,[1],1800 nM
same,TGI,[1],3410 nM
same,GI50,[2],1920 nM
same,TGI,[2],3740 nM
same,GI50,[3],1690 nM
same,TGI,[3],3070 nM
same,GI50,[51],1410 nM
same,TGI,[51],2760 nM
same,GI50,[4],1340 nM
same,TGI,[4],2750 nM
same,GI50,[5],1610 nM
same,TGI,[5],3050 nM
same,GI50,[6],1740 nM
same,TGI,[6],3160 nM
same,GI50,[8],1490 nM
same,TGI,[8],2810 nM
same,GI50,[9],1650 nM
same,TGI,[9],3110 nM
same,GI50,[10],1690 nM
same,TGI,[10],3250 nM
same,GI50,[11],1770 nM
same,TGI,[11],3780 nM
same,GI50,[12],1940 nM
same,TGI,[12],3650 nM
same,GI50,[13],1630 nM
same,TGI,[13],3100 nM
same,GI50,[52],1370 nM
same,TGI,[52],2760 nM
same,GI50,[14],1830 nM
same,TGI,[14],3250 nM
same,GI50,[53],1550 nM
same,TGI,[53],3010 nM
same,GI50,[15],1020 nM
same,TGI,[15],2420 nM
same,GI50,[16],1620 nM
same,TGI,[16],3030 nM
same,GI50,[17],1420 nM
same,TGI,[17],2760 nM
same,GI50,[18],1470 nM
same,TGI,[18],2800 nM
same,GI50,[19],1440 nM
same,TGI,[19],2870 nM
same,GI50,[20],1310 nM
same,TGI,[20],2580 nM
same,GI50,[21],1650 nM
same,TGI,[21],3450 nM
same,GI50,[24],1480 nM
same,TGI,[24],2800 nM
same,GI50,[25],1410 nM
same,TGI,[25],2950 nM
same,GI50,[26],1470 nM
same,TGI,[26],2990 nM
same,GI50,[54],1690 nM
same,TGI,[54],3150 nM
same,GI50,[29],1790 nM
same,TGI,[29],3320 nM
same,GI50,[30],1450 nM
same,TGI,[30],3110 nM
same,GI50,[55],1680 nM
same,TGI,[55],3290 nM
same,GI50,[31],1720 nM
same,TGI,[31],3220 nM
same,GI50,[32],1550 nM
same,TGI,[32],2940 nM
same,GI50,[33],1660 nM
same,TGI,[33],3610 nM
same,GI50,[34],1720 nM
same,TGI,[34],3280 nM
same,GI50,[35],1500 nM
same,TGI,[35],2920 nM
same,GI50,[37],1350 nM
same,TGI,[37],2700 nM
same,GI50,[39],1760 nM
same,TGI,[39],3170 nM
same,GI50,[40],1640 nM
same,TGI,[40],3250 nM
same,GI50,[41],1810 nM
same,TGI,[41],3690 nM
same,GI50,[56],1480 nM
same,TGI,[56],2850 nM
same,GI50,[57],1560 nM
same,TGI,[57],2950 nM
same,GI50,[42],1900 nM
same,TGI,[42],5080 nM
same,GI50,[43],1380 nM
same,TGI,[43],2670 nM
same,GI50,[44],1810 nM
same,TGI,[44],3230 nM
same,GI50,[45],1590 nM
same,TGI,[45],2940 nM
same,GI50,[46],1860 nM
same,TGI,[46],3730 nM
same,GI50,[47],1330 nM
same,TGI,[47],2700 nM
same,GI50,[48],1660 nM
same,TGI,[48],3030 nM
same,GI50,[49],1500 nM
same,TGI,[49],3230 nM
same,GI50,[50],1800 nM
same,TGI,[50],4340 nM
